ChEMBL document CHEMBL1159228, “The 1994 Japan-U.S. Seminar on Bioorganic Marine Chemistry, Meeting Report” (J Nat Prod, 1995)
In brackets after ≈: the same amount, converted by molar mass.

Tests used:
[1] = Inhibition of inosine-5'-monophosphate dehydrogenase
[2] = Molluscicidal activity against common snail; type: organism-based; settings: cornu aspersum, in vivo; read-out: LD50 (the source's name)
P388 [3] = experiment: In vivo cytotoxicity against mouse P388 cells relative to control; type: functional
B16 [4] = experiment: In vivo cytotoxicity against mouse B16 cells relative to control; type: functional
[5] = In vivo cytotoxicity against mouse LLC cells relative to control; type: functional, Lewis lung carcinoma
M5076 = experiment: In vivo cytotoxicity against mouse M5076 cells relative to control; type: functional
L1210 = experiment: Cytotoxicity against mouse L1210 cells; type: functional, cell-based
P388 [6] = experiment: Cytotoxicity against mouse P388 cells; type: functional, cell-based
[7] = Ichthyotoxicity against Carassius auratus; type: organism-based; settings: in vivo
[8] = In vivo cytotoxicity against mouse EAC cells at 40 ug/kg relative to control; type: functional, Ehrlich
B16 [9] = experiment: In vivo cytotoxicity against mouse B16 cells at 40 ug/kg relative to control; type: functional
[10] = In vivo cytotoxicity against mouse LLC cells at 40 ug/kg relative to control; type: functional, Lewis lung carcinoma
P388 [11] = experiment: In vivo cytotoxicity against mouse P388 cells at 80 ug/kg relative to control; type: functional
Colon 26 = experiment: In vivo cytotoxicity against mouse Colon 26 cells at 80 ug/kg relative to control; type: functional

Q: For `C#CC(O)/C=C/CCCCCCCCC/C=C\CCCCCCCCCCCC/C=C\CC#CC(=O)O` (stereo unspecified), which IC50 [1] is on record?
A: The IC50 was 1000 µM.

Q: With `CO/C(=C\C(=O)N(C)[C@@H](Cc1ccccc1)c1nccs1)C[C@H](C)C(Cl)(Cl)Cl` [BARBARAMIDE A] as the molecule, how does the LC50 [2] read?
A: The LC50 was under 100000 ng/mL.

Q: For `COc1cc2c(cc1O)CCN[C@]21CS[C@@H]2c3c(OC(C)=O)c(C)c4c(c3[C@H](COC1=O)N1[C@@H]2[C@H]2c3c(cc(C)c(OC)c3O)C[C@@H]([C@@H]1O)N2C)OCO4` [TRABECTEDIN], which T/C (P388 [3]) is on record?
A: Its T/C is 213%.

Q: What about the T/C (B16 [4]) of the same molecule?
A: Its T/C is 241%.

Q: What about the T/C [5] of the same molecule?
A: The T/C was 0%.

Q: What about the T/C (M5076) of the same molecule?
A: The T/C was 210%.

Q: For `CC1=C(O)/C(=C/C(C)CCCC(C)/C=C/C=C(\C)CCCc2ccoc2)OC1=O` (stereo unspecified) [FASCICULATIN], which IC50 [1] is on record?
A: The IC50 was 1000 µM.

Q: For `COc1c(C)cc2c(c1O)[C@@H]1[C@@H]3[C@H]4SCC(=O)C(=O)OC[C@@H](c5c(O)c(OC)c(C)c(OC(C)=O)c54)N3[C@@H](O)[C@H](C2)N1C`, which T/C (P388 [3]) is on record?
A: The T/C was 213%.

Q: What about the T/C (B16 [4]) of the same molecule?
A: The T/C was 241%.

Q: And the T/C [5]?
A: Its T/C is 0%.

Q: What about the T/C (M5076) of the same molecule?
A: The T/C was 210%.

Q: Which T/C (P388 [3]) does the source give for `COc1c(C)cc2c(c1O)[C@@H]1[C@@H]3[C@H]4SCC(N)C(=O)OC[C@@H](c5c(O)c(OC)c(C)c(OC(C)=O)c54)N3[C@@H](O)[C@H](C2)N1C` (stereo partly specified) here?
A: Its T/C is 213%.

Q: And the T/C (B16 [4])?
A: The T/C was 241%.

Q: And the T/C [5]?
A: The T/C was 0%.

Q: And the T/C (M5076)?
A: Its T/C is 210%.

Q: Which IC50 [1] does the source give for `Oc1c(Oc2c(O)c(Br)c(Br)c(Br)c2Br)cc(Br)c(Br)c1Br` here?
A: The IC50 was 1000 µM.

Q: Which IC50 (L1210) does the source give for `C=C1C(O)CC(=O)C(C)/C=C(\C)C[C@@H](O)[C@]2(O)O[C@H](CC[C@H]2O)CC(O)CCC(O)C(CCCC)OC(=O)C(C)C(O)C2OC12` (stereo partly specified) [AMPHIDINOLIDE N] here?
A: Its IC50 is 0.05 ng/mL (≈ 0.0778 nM).

Q: With `C[C@@H]1[C@@]2(CC[C@](C)(O)CO2)O[C@H]2C=C3[C@@H]4[C@@H](O)C[C@H]5Cc6nc7c(nc6C[C@]5(C)[C@H]4C[C@@H](O)[C@]3(C)[C@]21O)C[C@@H]1CC[C@@H]2[C@H](CC(=O)[C@]23C[C@@H]2O[C@@]4(CCC(C)(C)O4)[C@@H](C)[C@@H]2[C@]3(C)O)[C@@]1(C)C7` [RITTERAZINE A] as the molecule, how does the IC50 (P388 [6]) read?
A: The IC50 was 0.018 ng/mL (≈ 0.0197 nM).

Q: With `C=C(CCNC(=O)CC/C=C/C[C@H](CCCCCCC)OC)[C@@]12O[C@@H]1CC=C(C)C2=O` [MALYNGAMIDE H] as the molecule, how does the LC50 [7] read?
A: The LC50 was 25000 ng/mL (≈ 57900 nM).

Q: For `O=C1NCCc2cc(Br)c(O)c(c2)Oc2ccc(cc2Br)[C@H](O)CNC(=O)/C(=N/O)Cc2cc(Br)c(O)c(c2)Oc2c(Br)cc(cc2Br)C/C1=N\O` [BASTADIN 8], which IC50 [1] is on record?
A: Its IC50 is 1000 µM.

Q: For `C/C=C\[C@H](C)[C@@H]1O[C@]1(C)[C@@H](O)[C@@H](C)C(=O)[C@@H](CO)[C@@H](O)CC(=O)CC`, which IC50 (L1210) is on record?
A: Its IC50 is 100 ng/mL (≈ 281 nM).

Q: Which T/C [8] does the source give for `COCC(C(=O)O[C@@H]1C/C=C/C=C/C(=O)O[C@H]([C@@H](C)[C@@H](O)[C@@H](C)CC[C@@H](OC(=O)C(C)N(C)C)[C@H](C)[C@H](OC(C)=O)[C@H](C)/C=C/N(C)C=O)C/C=C/[C@H](OC)C[C@H](C)C/C=C(\C)[C@@H](OC)CC[C@@H](C)[C@@H](O)[C@@H]1C)N(C)C` (stereo partly specified) [APLYRONINE A] here?
A: Its T/C is 398%.

Q: What about the T/C (B16 [9]) of the same molecule?
A: The T/C was 201%.

Q: And the T/C [10]?
A: Its T/C is 556%.

Q: And the T/C (P388 [11])?
A: The T/C was 545%.

Q: And the T/C (Colon 26)?
A: Its T/C is 255%.
